This note sets out measurements from US10954237B2, “JAK inhibitors containing a 4-membered heterocyclic amide” (THERAVANCE BIOPHARMA R&D IP, LLC, priority 2017, dated 2021).

Data set [1] concerns IL-5 mediated survival of human eosinophils. In words: IL-5 mediated eosinophil survival assay. It is filed as cell-based. On the procedure: The potency of the test compound for IL-5 mediated eosinophil survival was measured in human eosinophils isolated from human whole blood (AllCells). Because IL-5 signals through JAK, this assay provides a measure of JAK cellular potency.
Human eosinophils were isolated from fresh human whole blood (AllCells) of healthy donors. Blood was mixed with 4.5% Dextran (Sigma-Aldrich) in a 0.9% sodium chloride solution (Sigma-Aldrich). Red blood cells were left to sediment for 35 minutes. The leukocyte rich upper layer was removed and layered over Ficoll-Paque (GE Healthcare) and centrifuged at 600 g for 30 minutes. The plasma and mononuclear cell layers were removed before the granulocyte layer was lysed with water to remove any contaminating red blood cells. […] Purity was analyzed using a LSRII flow cytometer (BD Biosciences). […]
After cytokine stimulation, cells were centrifuged at 300 g for 5 min and washed twice with cold DPBS (Life Technologies). To access viability and apoptosis, cells were incubated with Propidium Iodide (Thermo Fisher Scientific) and APC Annexin V (BD Biosciences) and analyzed using a LSRII flow cytometer (BD Biosciences). IC50 values were determined from analysis of the viability curves of percent cell viability vs compound concentration. Data are expressed as pIC50 (negative decadic logarithm IC50) values.

Data set [2] deals with IFNγ induced CXCL10 secretion. Put plainly: IFNγ induced CXCL10 in human 3D airway cultures. It is filed as cell-based. On the procedure: EpiAirway tissue cultures were obtained from Mattek (AIR-100). Cultures were derived from asthmatic donors. In a cell culture insert, human derived tracheal/bronchial epithelial cells were grown and differentiated on a porous membrane support, allowing an air-liquid interface with warmed culture medium below the cells and a gaseous test atmosphere above. Tissues were cultured in maintenance media (Mattek, AIR-100-MM) in a 37° C., 5% CO2 humidified incubator. Four donors were tested. On Day 0, tissue cultures were treated with test compounds at 10 μM, 1 μM and/or 0.1 μM. Compounds were diluted in dimethyl sulfoxide (DMSO, Sigma) to a final concentration of 0.1%. DMSO at 0.1% was used as a vehicle control. Test compounds were incubated with cultures for 1 hour at 37° C., 5% CO2, followed by the addition of pre-warmed media containing IFNγ (R&D Systems) or IL-27 (R&D Systems) at a final concentration at 100 ng/ml. Tissue cultures were maintained for 8 days. Media was replaced every 2 days with fresh media containing compounds and IFNγ or IL-27. On Day 8, tissue cultures and supernatants were collected for analysis. […] Data is expressed as % Inhibition+/−standard deviation (±STDV). Percent inhibition was determined by compound inhibitory potency against IFNγ or IL-27 induced CXCL10 or CXCL9 secretion compared to vehicle treated cells. […]

Data set [3] concerns IL-2/anti-CD3 stimulated IFNγ in human PBMCs. In words: Inhibition of IL-2/anti-CD3 stimulated IFNγ in human PBMCs. The format is cell-based. On the procedure:
The potency of the test compound for inhibition of interleukin-2 (IL-2)/anti-CD3 stimulated interferon gamma (IFNγ) was measured in human peripheral blood mononuclear cells (PBMCs) isolated from human whole blood (Stanford Blood Center). Because IL-2 signals through JAK, this assay provides a measure of JAK cellular potency.
(1) Human peripheral blood mononuclear cells (PBMC) were isolated from human whole blood of healthy donors using a ficoll gradient. Cells were cultured in a 37° C., 5% CO2 humidified incubator in RPMI (Life Technologies) supplemented with 10% Heat Inactivated Fetal Bovine Serum (FBS, Life Technologies), 2 mM Glutamax (Life Technologies), 25 mM HEPES (Life Technologies) and 1× Pen/Strep (Life Technologies). Cells were seeded at 200,000 cells/well in media (50 μL) and cultured for 1 h. Compounds were serially diluted in DMSO and then diluted another 500-fold (to a 2× final assay concentration) in media. […]
(2) After cytokine stimulation, cells were centrifuged at 500 g for 5 min and supernatants removed and frozen at −80° C. To determine the inhibitory potency of the test compound in response to IL-2/anti-CD3, supernatant IFNγ concentrations were measured via ELISA (R&D Systems). IC50 values were determined from analysis of the inhibition curves of concentration of IFNγ vs compound concentration. Data are expressed as pIC50 (negative decadic logarithm IC50) values.

The test system of data set [4] is IL-6 stimulated STAT3 phosphorylation in CD3+ T cells. In words: Inhibition of IL-6 stimulated pSTAT3 in CD3+ T cells. It is filed as cell-based, human. The source says:
A protocol analogous to that of Assay 10 was used to determine the potency of the test compound for inhibition of interleuken-6 (IL-6) stimulated STAT3 phosphorylation. An Alexa Fluor 647 conjugated anti-pSTAT3 antibody (pY705, Clone 4/P, BD Biosciences) was used to detect STAT3 phosphorylation.

Data set [5] can be described thus: Pharmacokinetics in plasma and lung in mouse. It is filed as in vivo. As to conditions: oral aspiration, lung AUC / plasma AUC.

A word on the inhibition: it is the change of the read-out against control, counted positive when it falls. In the case of `CCc1cc(O)c(F)cc1-c1ccc2c(-c3nc4c([nH]3)CN(C(C)C)[C@H](C(=O)N3CC(N(C)C)C3)C4)n[nH]c2c1` [Example 2, (S)-(3-(dimethylamino)azetidin-1-yl)(2-(6-(2-ethyl-5-fluoro-4-hydroxyphenyl)-1H-indazol-3-yl)-5-isopropyl-4,5,6,7-tetrahydro-3H-imidazo[4,5-c]pyridin-6-yl)methanone], in data set [1], the “IL-5 mediated human eosinophil survival (in words)” value is “potently inhibit”. Also, the inhibition at 10 µM in data set [2] came out at 101%. The “anti-CD3 and IL-2 induced release of IFNγ from activated human peripheral blood-isolated T cells (in words)” value in data set [3] is “inhibit”. The “IL-6 signaling (in words)” value in data set [4] is recorded as “inhibit”.

Turning to `CCCN1Cc2[nH]c(-c3n[nH]c4cc(-c5cc(F)c(O)cc5CC)ccc34)nc2C[C@H]1C(=O)N1CC(N(C)C)C1` [Example 4, (S)-(3-(dimethylamino)azetidin-1-yl)(2-(6-(2-ethyl-5-fluoro-4-hydroxyphenyl)-1H-indazol-3-yl)-5-propyl-4,5,6,7-tetrahydro-3H-imidazo[4,5-c]pyridin-6-yl)methanone], the “Lung to Plasma ratio Assay 3” value in data set [5] is “C (C denotes a ratio between 20 and 50)”.
